Residues, ends and D or L forms follow the SMILES beside them. *: point of attachment. For = O=C*
| melting point | SMILES |
| --- | --- |
| 101 to 103 °C | O=c1ccc(C(F)(F)F)cn1Cc1ccccc1NCCN1CCOCC1 |
| 189 °C | COc1ccc(C(=O)OCCN2CCC(Nc3nc4ccccc4n3Cc3ccc(F)cc3)CC2)cc1 |
| 299 to 300 °C | Oc1ccc2nc(-c3ccc(O)c(F)c3)cc(-c3ccc(C(F)(F)F)cc3)c2c1 |
| 134 °C | Cc1ccc(S(=O)(=O)N2CCCC2c2ccc(F)cc2)cc1Cl (racemic) |
| 52.7 °C | CCCc1cnc(-c2ccc(F)cc2)nc1 |
| 73 to 75 °C | Cn1nnnc1SCCCC(=O)c1ccccn1 |
| 178 °C | CC(=O)OC1CSC(Oc2cccnc2[N+](=O)[O-])C(OC(C)=O)C1OC(C)=O (stereo not drawn) |
| 86 °C | COc1cccc2c1CC(N(CCCc1cn(C)c3ccc(F)cc13)CC1CC1)CO2 (stereo not drawn) |
| 168 to 169 °C | CNC(=O)c1cccc(C(C(N)=O)c2c[nH]c3ccccc23)c1 (stereo not drawn) |
| 107 to 109 °C | CCCN(C1CCC1)[C@H]1COc2c(F)ccc(C(N)=O)c2C1 |
| 161 to 162 °C | N#Cc1cc([N+](=O)[O-])ccc1OCc1ccc2ccccc2n1 |
| 146 to 148 °C | CCCCOCCOc1ccc(-c2ccc3c(c2)C=C(C(=O)Nc2ccc(S(=O)Cc4nccn4CC(=O)O)cc2)CCN3CC(C)C)cc1 (stereo not drawn) |
| 161 to 162 °C | COc1ccc(S(=O)(=O)C(CCc2ccccc2)CC(=O)O)cc1OC (stereo not drawn) |
| 83 to 84 °C | CCN(CC)S(=O)(=O)c1ccc(Oc2ccc(S(=O)(=O)C(F)(F)F)cc2)cc1 |
| 157 to 175 °C | COc1ccc(C(=O)c2cccc(N)c2)cc1OC |
| > 330 °C | N#CC=Cc1ccc2c(c1)-c1c3c(c4c([nH]c5ccccc54)c1C2)C(=O)NC3 |
| 84 to 86 °C | O=C(CNC(=O)c1ccc(F)c([N+](=O)[O-])c1)OCc1ccccc1 |
| 65 to 66.5 °C | CC(=O)c1c(C)oc(-c2ccncc2)c1C |
| 66 to 67 °C | CC(C)CCSC1C(O)C(CO)OC1n1ccc(=O)[nH]c1=O (stereo not drawn) |
| 227 to 228 °C | O=c1cc(Oc2ccc([N+](=O)[O-])cc2)cc[nH]1 |
| 128 to 130 °C | OC(Cn1cncn1)(c1ccc(F)cc1)C(F)(F)c1ccc(F)cc1 (stereo not drawn) |
| 131 to 133 °C | COc1cc2c(cc1OC)CN(CCCCNC(=O)c1cc(C)ccc1OCCF)CC2 |
| > 275 °C | CC(=O)NC1CC(N)(C(=O)O)C2C(C(=O)O)C12 (stereo not drawn) |

| melting point | SMILES |
| --- | --- |
| 32 to 33 °C | Cc1ccc(Br)c2occc12 |
| 98.1 °C | c1ccc(C(c2ccc3nccnc3c2)n2cnnc2)cc1 (stereo not drawn) |
| 202 to 205 °C | CCOc1cc2c(c3c1OC(C)(C)C3)C(c1cccc(NC(N)=O)c1)=NC(C)(C)C2 |
| 147 to 148 °C | O=S1(=O)N=CN(C2CC2)c2c1ccc(F)c2Cl |
| 85 to 87 °C | O=C1C2CCCCC2C(=O)N1c1cc(C(F)(F)F)cc(C(F)(F)F)c1 (stereo not drawn) |
| 138 to 140 °C | CC(C)C(C)(C(N)=O)N1C(=O)C=CC1=O (stereo not drawn) |
| 219 to 222 °C | CC(C)(O)CCc1cc(F)c2ncc(C(=O)NCc3ccc(Cl)cc3)c(O)c2c1 |
| 124 °C | COC(=O)C(Cc1ccccc1)NC(=O)C(CC(=O)O)NC=O (stereo not drawn) (For-Asp-Phe-OMe; configuration not given here) |
| 102 to 104 °C | CN1C(=O)CC[C@]2(C)c3ccc(SC(c4ccccc4)c4ccccc4)cc3CC[C@@H]12 |
| 188 to 192 °C | CC(C(=O)c1ccc2c(c1)CC(=O)N2)N1CCC(O)(Cc2ccccc2)CC1 (stereo not drawn) |
| 182 to 185 °C | CCc1cn(C2CC(O)C(CN(C)C(=O)Cc3ccccc3Br)O2)c(=O)[nH]c1=O (stereo not drawn) |
| 216 to 217 °C | CC1(C)Cc2c(c(N3CCOCC3)nc3sc4c(NCCCN5CCCC5=O)ncnc4c23)CO1 |
| 205 °C | Nc1c2c(nc3cccc(Cl)c13)C(=O)CCC2 |
| 94 to 130 °C | CC(=O)OCCCOc1ccc([N+](=O)[O-])c(C=C2NC(=O)NC2=O)c1 |
| 138 to 142 °C | CC1c2cccc3c2N(CC3)c2ccccc2N1C(=O)CCN(C)C (stereo not drawn) |
| 220 °C | Cc1cn(Nc2cccc(Cl)c2)c(=S)n1-c1ccc(Br)cc1 |
| 200 to 202 °C | CS(=O)(=O)c1ccc(-c2nn3c(-c4ccc(F)cc4)coc3c2-c2ccc(F)cc2)cc1 |
| 98 to 100 °C | COCc1ccc(OC)c(Br)c1O |
| 108 to 110 °C | COc1ccc(C=CC(=O)c2c(OC)cc(OC)cc2OC2OC(COC(C)=O)C(OC(C)=O)C(OC(C)=O)C2NC(C)=O)cc1 (stereo not drawn) |
| 288 to 290 °C | CC(=O)Nc1ccc2cnn(-c3ccnc(N[C@H]4CC[C@H](O)CC4)n3)c2c1 |
| 98.5 to 99 °C | CCCCOCCOc1ccc(-c2ccc(N3CCC(=O)C3)c(C=C(C)C(=O)OCC)c2)cc1 |
| 181 to 183 °C | CCCCNC(=O)c1cc(C(C)(C)C)c(O)c(C(C)(C)C)c1 |
| 186 to 187 °C | Cc1nc2c(s1)C(=O)C(=CN1CCOCC1)CC2 |

| melting point | SMILES |
| --- | --- |
| 122 to 124 °C | COc1ccc2c(c1)c(Cc1cc(=O)n(-c3ccc(C)nn3)[nH]1)c(C)n2C(=O)c1ccc(Cl)cc1 |
| 110 to 113 °C | CC(C)NC(=O)c1nsc2ccc(-n3c(=O)cc(C(F)(F)F)n(C)c3=O)cc12 |
| 130 to 131 °C | O=C1c2ccccc2C(=O)N1OCc1cccs1 |
| 214 °C | O=C(O)c1nc2cc(N3CCOCC3)c([N+](=O)[O-])cc2[nH]c1=O |
| 160 to 161 °C | CC1(C)C(C(=O)O)N2C(=O)C(NC(=O)COc3ccccc3)C2S1=O (stereo not drawn) |
| 98 to 99 °C | CCNc1cccc(-c2ccnc3c(C(=O)c4ccccc4)cnn23)c1 |
| 69 to 70 °C | COc1ccc2cc(CCC(C)=O)cc(F)c2c1 |
| 155 to 156 °C | CCSc1cc(C)nc(SCC)c1NC(=O)CCCCSc1nc2cccc(C(F)(F)F)c2o1 |
| 151 to 153 °C | COc1ccccc1N1CCN(CCOc2ccc(-c3cn4ccccc4n3)cc2)CC1 |
| 178 °C | Cc1ccc2cc(NS(=O)(=O)c3cccc(Cl)c3C)ccc2n1 |
| 227 to 229 °C | CCOC(=O)c1cn(C2CC2)c2cc(Cl)c(F)c(Cl)c2c1=O |
| 133 to 137 °C | NC(=O)N1CC(Oc2ccccn2)C1 |
| 157 °C | O=C(O)CCc1cc2cc(Cl)ccc2n1S(=O)(=O)c1ccc2c(c1)CCN2 |
| 120 °C | [N-]=[N+]=NCc1cc(=O)c(OCc2ccccc2)cn1Cc1ccccc1 |
| > 300 °C | Cc1[nH]c(=O)c2c(ccc3nc(Nc4c(Cl)cccc4Cl)[nH]c32)c1C |
| 90 to 94 °C | Nc1ccnn1-c1c(Cl)cc(C(F)(F)F)cc1Cl |
| > 250 °C | Cc1cc(-c2ccc(C(F)(F)F)cc2)cc(-c2cccc(-c3csc(N)n3)c2)n1 |
| 200 to 202 °C | CC(=O)Oc1cc2nc(-c3ccccc3)nn2c2ccccc12 |
| 290 to 295 °C | COc1cc2ncc(C#N)c(Nc3ccc4[nH]ncc4c3)c2cc1OC |
| 226 to 228 °C | Nc1ccc2c3c(cccc13)C(=O)N(C1CCN(Cc3ccccc3)CC1)C2=O |
| 110 to 114 °C | O=C(/C=C/c1ccccc1F)N1CCN(C(=O)c2cc(C(F)(F)F)cc(C(F)(F)F)c2)[C@H](Cc2c[nH]c3ccccc23)C1 |
| 234 to 236 °C | O=C(Nc1ccc(N2CCCC2)nc1)c1cc2cc(C(F)(F)F)cnc2n1Cc1cccc(F)c1 |
| 116 to 120 °C | CC(C)(C)NS(=O)(=O)c1ccc(S(N)(=O)=O)s1 |

| melting point | SMILES |
| --- | --- |
| 256 to 260 °C | O=C1Nc2ccc(F)cc2C1c1ncnc2nn(C3CCCC3)cc12 (stereo not drawn) |
| 204 to 208 °C | CCOP(=O)(Cc1nnc2c(=O)[nH]c3ccc(C(F)(F)F)cc3n12)OCC |
| 68 to 70 °C | CCOC(=O)CSc1nc(Cl)cc(NCCc2ccc(Cl)cc2)n1 |
| 158 to 160 °C | Nc1nc2c(s1)CCN(CC1=Cc3ccccc3CC1)CC2 |
| 141 to 143 °C | Cc1[nH]c(C(=O)NCc2ccc(Cl)c(Cl)c2)c(C)c1-c1nc2ccc(C(=O)c3ccccc3)cc2[nH]1 |
| 161 to 164 °C | O=[N+]([O-])c1oc2cc3c(cc2c1-c1ccccc1)CCC3 |
| 109 to 112 °C | O=S(c1ccc(-n2cnnn2)cc1)C(F)F (stereo not drawn) |
| 191 to 193 °C | COc1ccc(-c2cc3cc(F)c(F)cc3[nH]2)cc1NC(=S)NCCO |
| 175 to 176 °C | NC(=O)c1ccc(-c2cccc3cc(Cc4cccc(C(F)(F)F)c4)sc23)cc1 |
| 126 to 127 °C | C=C1N(CCC)C(=O)OC12CCN(CC=C(c1ccccc1)c1ccccc1)CC2 |
| 166 °C | CC(CN1CCN(C)CC1)OC(=O)c1c[nH]c2ccccc12 (stereo not drawn) |
| 212 to 214 °C | Cn1c(COc2ccc(CC3SC(=O)NC3=O)cc2)nc2cc(C(F)(F)F)cnc21 (stereo not drawn) |
| 145 to 146 °C | Cc1c(OCC(F)(F)C(F)(F)F)ccnc1CSc1nc2ccccc2[nH]1 |
| 165 to 167 °C | O=C(O)C=Cc1cccc(Sc2c[nH]c3ccccc23)c1 |
| 154 °C | Cc1cccc(-n2nc(C)c3c(Cl)c4ccccc4nc32)n1 |
| 117 °C | C#CCOCCn1c(CN2CCN(C)CC2)nc2cccnc21 |
| 143 to 144 °C | Cc1ccc(C(=Cc2nnnn2C)c2ccc(C)cc2C)c(C)c1 |
| > 275 °C | Cn1c(=O)c2[nH]c(/C=C/c3ccc4c(c3)OCO4)nc2n(C)c1=O |
| 180 to 181 °C | CC1CCN(CCCC(=O)c2ccc3c(c2)Cc2cc(C(=O)CCCN4CCC(C)CC4)ccc2-3)CC1 |
| 61 to 64 °C | O=C(O)[C@@H]1CC[C@H](c2ccccc2)N1C(=O)CCS |
| 74 to 75 °C | COc1ccccc1C(N)=CC#N |
| 168 °C | O=C1Nc2cccnc2N(CC#CCN2CCOCC2)c2ccccc21 |

| SMILES | melting point |
| --- | --- |
| CCCNC(=O)N(CCC(=O)OC)CC1CC2c3cccc4[nH]cc(c34)CC2N(C)C1 (stereo not drawn) | 130 to 132 °C |
| COc1ccc2c(C3=CCN(C[C@H](O)COc4cccc5[nH]ccc45)CC3)c[nH]c2c1 | 155 to 160 °C |
| COP(=O)(OC)C(=O)Cc1ccccc1 | 117 to 122 °C |
| N#Cc1nn(-c2c(Cl)cc(C(F)(F)F)cc2Cl)c(Cl)c1C=O | 145 to 146 °C |
| CC(=O)c1ccc2c(c1)C(c1ccccc1F)=NC(C)(C)C(=O)N2C | 68 °C |
| Cc1ccc2c(c1)CCN1C2CC(=O)C2CCCCC21 (stereo not drawn) | 101 to 121 °C |
| CS(=O)c1c(C#N)nn(-c2c(Cl)cc(C(F)(F)F)cc2Cl)c1NCc1cnccn1 (stereo not drawn) | 198 °C |

From a melting point compilation (Tetko et al.; mined from patent text by program, amines drawn as free bases though some values may be those of a salt)
